Laboratory results reported in patent US9593097B2, “Axl inhibitors” (Pfizer Inc., priority 2014, dated 2017).

Target: Axl phosphorylation in 293MSR-AxlWT6 cells (Homo sapiens (Human), UniProt P30530)
Experiment: Cellular Axl phosphorylation ELISA assay (Gas6-stimulated 293MSR-AxlWT6 cells)
Type: cell-based
Settings: Table 4A, read-out: CELL AXL IC50
Protocol: Cellular Axl Phosphorylation ELISA Assay
After 6-7 hrs in tissue culture incubator at 37° C. 5% CO2, medium was removed, serum-free medium was added (with 0.04% bovine serum albumin) and plates were returned to incubator where they remained overnight. […] Media was then removed and lysis buffer was added to wells and shaken at 4° C. for 30 min to generate protein lysates. Subsequently, phosphorylation of Axl was assessed by a sandwich ELISA method using a DuoSet IC Human Phospho-Axl ELISA assay kit (R&D System), an immobilized mouse anti-human Axl antibody and an anti-phospho-tyrosine-HRP antibody as a detection antibody. Antibody-coated plates were (a) incubated in presence of protein lysates at room temperature for 2 hrs, (b) washed seven times in 0.1% Tween 20 in PBS, (c) incubated with secondary antibody (a horseradish peroxidase-conjugated […]) for 2 hrs, (d) washed seven times again, (e) TMB peroxidase substrate (Bio-Rad) was added to initiate a colorimetric reaction and stopped by adding 0.2 N H2SO4, and (f) measured at OD 450 nm using a spectrophotometer. IC50 values were calculated by concentration-response curve fitting using a four-parameter analytic method and reported in μM.
For Table 4B, IC50 values were calculated by concentration-response curve fitting using a four-parameter analytic method and reported in nM.

Axl phosphorylation in 293MSR-AxlWT6 cells, sequence (P30530 26-894): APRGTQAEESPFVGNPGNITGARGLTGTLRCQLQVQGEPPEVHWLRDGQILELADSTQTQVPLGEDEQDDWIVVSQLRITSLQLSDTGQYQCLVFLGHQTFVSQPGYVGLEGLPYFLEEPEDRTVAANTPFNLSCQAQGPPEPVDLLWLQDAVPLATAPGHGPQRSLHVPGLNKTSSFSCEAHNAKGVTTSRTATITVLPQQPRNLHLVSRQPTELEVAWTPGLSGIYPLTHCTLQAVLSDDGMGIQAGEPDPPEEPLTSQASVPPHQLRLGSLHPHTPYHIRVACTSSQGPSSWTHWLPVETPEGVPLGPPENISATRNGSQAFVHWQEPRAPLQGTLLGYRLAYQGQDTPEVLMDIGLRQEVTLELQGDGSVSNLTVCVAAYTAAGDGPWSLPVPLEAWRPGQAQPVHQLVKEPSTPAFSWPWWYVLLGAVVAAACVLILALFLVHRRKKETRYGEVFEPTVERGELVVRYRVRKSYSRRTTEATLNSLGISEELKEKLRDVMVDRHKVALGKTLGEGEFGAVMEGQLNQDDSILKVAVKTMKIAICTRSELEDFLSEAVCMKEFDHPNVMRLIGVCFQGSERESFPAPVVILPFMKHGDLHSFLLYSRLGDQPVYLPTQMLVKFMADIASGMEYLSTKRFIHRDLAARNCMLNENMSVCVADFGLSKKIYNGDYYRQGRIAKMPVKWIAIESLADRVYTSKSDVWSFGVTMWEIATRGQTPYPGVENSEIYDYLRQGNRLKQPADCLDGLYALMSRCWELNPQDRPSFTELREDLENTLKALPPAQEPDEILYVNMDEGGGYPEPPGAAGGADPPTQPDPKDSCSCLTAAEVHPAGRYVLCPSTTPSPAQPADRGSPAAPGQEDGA

SMILES | IC50
CCNC(=O)c1cc(N2CCC(COc3cc(C#N)cnc3N)CC2)nc(O[C@H](C)COC)n1 [Example 21, 6-(4-{[(2-amino-5-cyanopyridin-3-yl)oxy]methyl}piperidin-1-yl)-N-ethyl-2-{[(2R)-1-methoxypropan-2-yl]oxy}pyrimidine-4-carboxamide] | 37 nM
N#C[C@@H]1C[C@@H]1COc1nc(C(=O)NCC2CC2)nc(N2CCC(c3ccc(N)c(C(N)=O)n3)CC2)n1 [Example 87, 4-[4-(5-amino-6-carbamoylpyridin-2-yl)piperidin-1-yl]-6-{[(1S,2R)-2-cyanocyclopropyl]methoxy}-N-(cyclopropyl-methyl)-1,3,5-triazine-2-carboxamide] | 66 nM
CN(C)CCOc1ccc(C(N)=O)nc1C1CCN(c2cc(C(=O)NC3CCC3)nc(OCC3CC3(F)F)n2)CC1 (centres unmarked) [Example 39, 6-(4-{6-carbamoyl-3-[2-(dimethylamino)ethoxy]pyridin-2-yl}piperidin-1-yl)-N-cyclobutyl-2-[(2,2-difluoro-cyclopropyl)methoxy] pyrimidine-4-carboxamide] | 83.8 nM
N#C[C@@H]1C[C@@H]1COc1nc(C(=O)NC23CC(C2)C3)nc(N2CCC(COc3cncnc3N)CC2)n1 [Example 66, 4-(4-{[(4-aminopyrimidin-5-yl)oxy]methyl}piperidin-1-yl)-N-(bicyclo[1.1.1]pent-1-yl)-6-{[(1S,2R)-2-cyanocyclopropyl]methoxy}-1,3,5-triazine-2-carboxamide] | 61.8 nM
COc1ccnc2[nH]cc(C3CCN(c4cc(C(=O)N[C@H](C)CO)nc(OC[C@H]5C[C@H]5C#N)n4)CC3)c12 [Example 377, 2-{[(1S,2R)-2-cyanocyclopropyl]methoxy}-N-[(2R)-1-hydroxypropan-2-yl]-6-[4-(4-methoxy-1H-pyrrolo[2,3-b]pyridin-3-yl)piperidin-1-yl]pyrimidine-4-carboxamide] | 0.4 nM
CS(=O)(=O)COc1ccnc2[nH]nc(C3CCN(c4cc(C(=O)NC56CC(C5)C6)nc(OC[C@H]5C[C@H]5C#N)n4)CC3)c12 [Example 67, N-(bicyclo[1.1.1]pent-1-yl)-2-{[(1S,2R)-2-cyanocyclopropyl]methoxy}-6-(4-{4-[(methylsulfonyl)methoxy]-1H-pyrazolo[3,4-b]pyridin-3-yl}piperidin-1-yl)pyrimidine-4-carboxamide] | 18.7 nM
C[C@@H](NC(=O)c1cc(N2CCC(c3ccc(N)c(C(N)=O)n3)CC2)nc(OCC2CC2(F)F)n1)C(C)(C)O (single isomer, unassigned) [Example 15] | 8.36 nM
CCOc1nc(C(=O)NC23CC(C2)C3)cc(N2CCC(c3nc(C(N)=O)ccc3OCCN(C)C)CC2)n1 [Example 41, N-(bicyclo[1.1.1]pent-1-yl)-6-(4-{6-carbamoyl-3-[2-(dimethylamino)ethoxy]pyridin-2-yl}piperidin-1-yl)-2-ethoxypyrimidine-4-carboxamide] | 124 nM
C[C@H](CO)NC(=O)c1cc(N2CCC(c3n[nH]c4ncccc34)CC2)nc(OC[C@@H]2CCOC2)n1 [Example 382, N-[(2R)-1-hydroxypropan-2-yl]-6-[4-(1H-pyrazolo[3,4-b]pyridin-3-yl)piperidin-1-yl]-2-[(3R)-tetrahydrofuran-3-ylmethoxy]pyrimidine-4-carboxamide] | 154 nM
N#C[C@@H]1C[C@@H]1COc1nc(C(=O)NC23CC(C2)C3)cc(N2CC[C@@H](c3n[nH]c4ncccc34)[C@@H](F)C2)n1 (single isomer, unassigned) [Example 78] | 8.42 nM
COC[C@@H](C)Oc1nc(C(=O)NC2CCC2)cc(N2CCC(c3ccc(N)c(C(N)=O)n3)CC2)n1 [Example 4, 6-[4-(5-amino-6-carbamoylpyridin-2-yl)piperidin-1-yl]-N-cyclobutyl-2-{[(2R)-1-methoxypropan-2-yl]oxy}pyrimidine-4-carboxamide] | 2.83 nM
NC(=O)c1nc(C2CCN(c3cc(C(=O)NCC(F)(F)F)nc(OCC4CC4(F)F)n3)CC2)ccc1N (centres unmarked) [Example 5, 6-[4-(5-amino-6-carbamoylpyridin-2-yl)piperidin-1-yl]-2-[(2,2-difluoro-cyclopropyl)methoxy]-N-(2,2,2-trifluoroethyl) pyrimidine-4-carboxamide] | 12.4 nM
N#CC1(COc2nc(C(=O)NCC(F)(F)F)cc(N3CCC(COc4cncnc4N)CC3)n2)CC1 [Example 31, 6-(4-{[(4-aminopyrimidin-5-yl)oxy]methyl}piperidin-1-yl)-2-[(1-cyanocyclopropyl)methoxy]-N-(2,2,2-trifluoroethyl) pyrimidine-4-carboxamide] | 12.6 nM
COc1ccnc2[nH]cc(C3CCN(c4nc(OC[C@H]5C[C@H]5C#N)nc(C(=O)NC5(C)CCC5)n4)CC3)c12 [Example 378, 4-{[(1S,2R)-2-cyanocyclopropyl]methoxy}-6-[4-(4-methoxy-1H-pyrrolo[2,3-b]pyridin-3-yl)piperidin-1-yl]-N-(1-methylcyclobutyl)-1,3,5-triazine-2-carboxamide] | 0.24 nM
C[C@@H](NC(=O)c1cc(N2CCC(c3ccc(N)c(C(N)=O)n3)CC2)nc(OCC2CC2(F)F)n1)C(C)(C)O (single isomer, unassigned) [Example 16] | 12.6 nM
COC[C@@H](C)Oc1nc(C(=O)NC2(C#N)CCC2)cc(N2CCC(c3n[nH]c4ncccc34)CC2)n1 [Example 14, N-(1-cyanocyclobutyl)-2-{[(2R)-1-methoxypropan-2-yl]oxy}-6-[4-(1H-pyrazolo[3,4-b]pyridin-3-yl)piperidin-1-yl]pyrimidine-4-carboxamide] | 12.4 nM
N#C[C@@H]1C[C@@H]1COc1nc(C(=O)NC23CC(C2)C3)cc(N2CCC(c3n[nH]c4nccc(OCCO)c34)CC2)n1 [Example 65, N-(bicyclo[1.1.1]pent-1-yl)-2-{[(1S,2R)-2-cyanocyclopropyl]methoxy}-6-{4-[4-(2-hydroxyethoxy)-1H-pyrazolo[3,4-b]pyridin-3-yl]piperidin-1-yl}pyrimidine-4-carboxamide] | 1.86 nM
CC(CN(C)C)NC(=O)c1cc(N2CCC(c3ccc(N)c(C(N)=O)n3)CC2)nc(OCC2CC2)n1 (centres unmarked) [Example 34, 6-[4-(5-amino-6-carbamoylpyridin-2-yl)piperidin-1-yl]-2-(cyclopropyl-methoxy)-N-[1-(dimethylamino)propan-2-yl]pyrimidine-4-carboxamide] | 30.5 nM
C[C@H](CO)NC(=O)c1cc(N2CCC(c3c[nH]c4ncccc34)CC2)nc(OC[C@H]2CCO2)n1 [Example 50, N-[(2R)-1-hydroxypropan-2-yl]-2-[(2R)-oxetan-2-ylmethoxy]-6-[4-(1H-pyrrolo[2,3-b]pyridin-3-yl)piperidin-1-yl]pyrimidine-4-carboxamide] | 15.5 nM
COC[C@@H](C)Oc1nc(C(=O)NCC2CC2)nc(N2CCC(c3ccc(N)c(C(N)=O)n3)CC2)n1 [Example 58, 4-[4-(5-amino-6-carbamoylpyridin-2-yl)piperidin-1-yl]-N-(cyclo-propylmethyl)-6-{[(2R)-1-methoxypropan-2-yl]oxy}-1,3,5-triazine-2-carboxamide] | 23.8 nM
N#C[C@@H]1C[C@@H]1COc1nc(C(=O)NCC(F)(F)F)nc(N2CCC(c3ccc(N)c(C(N)=O)n3)CC2)n1 [Example 89, 4-[4-(5-amino-6-carbamoylpyridin-2-yl)piperidin-1-yl]-6-{[(1S,2R)-2-cyanocyclopropyl]methoxy}-N-(2,2,2-trifluoroethyl)-1,3,5-triazine-2-carboxamide] | 134 nM
C[C@H](CO)NC(=O)c1cc(N2CCC(c3n[nH]c4ncccc34)CC2)nc(OC[C@H]2C[C@H]2C#N)n1 [Example 43, 2-{[(1S,2R)-2-cyanocyclopropyl]methoxy}-N-[(2R)-1-hydroxypropan-2-yl]-6-[4-(1H-pyrazolo[3,4-b]pyridin-3-yl)piperidin-1-yl]pyrimidine-4-carboxamide] | 131 nM
CCNC(=O)c1cc(N2CCC(COc3cc(-c4cnn(CCO)c4)cnc3N)CC2)nc(O[C@H](C)COC)n1 [Example 86, 6-{4-[({2-amino-5-[1-(2-hydroxyethyl)-1H-pyrazol-4-yl]pyridin-3-yl}oxy)methyl]piperidin-1-yl}-N-ethyl-2-{[(2R)-1-methoxypropan-2-yl]oxy} pyrimidine-4-carboxamide] | 16.7 nM
COC[C@@H](C)Oc1nc(C(=O)NC23CC(C2)C3)nc(N2CCC(c3ccc(N)c(C(N)=O)n3)CC2)n1 [Example 54, 4-[4-(5-amino-6-carbamoylpyridin-2-yl)piperidin-1-yl]-N-(bicyclo[1.1.1]pent-1-yl)-6-{[(2R)-1-methoxypropan-2-yl]oxy}-1,3,5-triazine-2-carboxamide] | 5.27 nM
N#C[C@@H]1C[C@@H]1COc1nc(C(=O)NC(CCO)C(F)(F)F)cc(N2CCC(COc3cncnc3N)CC2)n1 (stereo partly drawn) [Example 63, 6-(4-{[(4-aminopyrimidin-5-yl)oxy]methyl}piperidin-1-yl)-2-{[(1S,2R)-2-cyanocyclopropyl]methoxy}-N-(1,1,1-trifluoro-4-hydroxybutan-2-yl)pyrimidine-4-carboxamide] | 455 nM
COC[C@@H](C)Oc1nc(C(=O)NCC(C)(C)O)cc(N2CCC(c3ccc(N)c(C(N)=O)n3)CC2)n1 [Example 8, 6-[4-(5-amino-6-carbamoylpyridin-2-yl)piperidin-1-yl]-N-(2-hydroxy-2-methylpropyl)-2-{[(2R)-1-methoxypropan-2-yl]oxy}pyrimidine-4-carboxamide] | 77.9 nM
